Reference: PubChem BioAssay AID256 (DTP/NCI, 2004)
Inconclusive results and toxic doses are left out. Rule for the calls: active = survival T/C of 150% or more; inactive = T/C below 125% in these data.

Tested on: CD2F1 mice, L1210 leukemia ip, survival T/C
Assay: NCI In Vivo Anticancer Drug Screen. Data for tumor model L1210 Leukemia (intraperitoneal) in CD2F1 (CDF1) mice
Conditions: higher = longer survival
Method in brief: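 Transplantable tumor in mice; compound-treated vs vehicle-treated groups. Read-out = treated/control ratio of the measured endpoint.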

[1] = endpoint: mean survival time, dose: 100.0 mg/kg/injection, schedule: Q04DX002 (ip), vehicle: saline with Tween-80
[2] = endpoint: mean survival time, dose: 100.0 mg/kg/injection, schedule: Q01DX009 (ip), vehicle: saline with Tween-80
[3] = endpoint: mean survival time, dose: 100.0 mg/kg/injection, schedule: Q04DX003 (ip), vehicle: saline with Tween-80
[4] = endpoint: mean survival time, dose: 200.0 mg/kg/injection, schedule: Q01DX009 (ip), vehicle: saline with Tween-80
[5] = endpoint: mean survival time, dose: 200.0 mg/kg/injection, schedule: Q04DX003 (ip), vehicle: saline with Tween-80
[6] = endpoint: mean survival time, dose: 400.0 mg/kg/injection, schedule: Q04DX003 (ip), vehicle: saline with Tween-80

Measured: T/C

CC(CO)CCC(=O)C(C)C1C2(CC3C4CCC5CC(O)CCC5(C)C4CCC31C)SCCS2 (configuration not stated)
inactive: [1] 86 % of control | endpoint: mean survival time, dose: 400.0 mg/kg/injection, schedule: Q04DX002 (ip), vehicle: saline with Tween-80 92 % of control

NC(=O)NC(=S)NC(=O)c1ccccc1
inactive: [2] 111 % of control | [3] 102 % of control | [4] 98 % of control | [5] 98 % of control | endpoint: mean survival time, dose: 400.0 mg/kg/injection, schedule: Q01DX009 (ip), vehicle: saline with Tween-80 98 % of control | [6] 101 % of control

C(=C(\C[P+](c1ccccc1)(c1ccccc1)c1ccccc1)c1ccccc1)/c1ccccc1
inactive: endpoint: mean survival time, dose: 1.25 mg/kg/injection, schedule: Q01DX009 (ip), vehicle: saline with Tween-80 104 % of control | endpoint: mean survival time, dose: 2.5 mg/kg/injection, schedule: Q01DX009 (ip), vehicle: saline with Tween-80 102 % of control | endpoint: mean survival time, dose: 5.0 mg/kg/injection, schedule: Q01DX009 (ip), vehicle: saline with Tween-80 97 % of control

N#C/C(=C\c1ccc(-c2ccccc2)cc1)c1ccccc1
inactive: [5] 86 % of control | [6] 95 % of control

CCC1(O)C(=O)OCc2c1cc1n(c2=O)Cc2cc3ccc(N(C)C)cc3nc2-1 (configuration not stated)
inactive: endpoint: median survival time, dose: 10.0 mg/kg/injection, schedule: Q04DX002 (ip), vehicle: saline with Tween-80 103 % of control | endpoint: median survival time, dose: 20.0 mg/kg/injection, schedule: Q04DX002 (ip), vehicle: saline with Tween-80 106 % of control | endpoint: median survival time, dose: 40.0 mg/kg/injection, schedule: Q04DX002 (ip), vehicle: saline with Tween-80 106 % of control | endpoint: median survival time, dose: 80.0 mg/kg/injection, schedule: Q04DX002 (ip), vehicle: saline with Tween-80 112 % of control

O=C(O)CCCc1cc(O)c2c(c1O)C(=O)c1ccccc1C2=O
inactive: endpoint: mean survival time, dose: 50.0 mg/kg/injection, schedule: Q04DX003 (ip), vehicle: saline with Tween-80 120 % of control | [3] 104 % of control | [5] 101 % of control

CC(=O)OC1=C(C)C(c2ccc(C)cc2)OC1=O (configuration not stated)
inactive: endpoint: mean survival time, dose: 12.5 mg/kg/injection, schedule: Q01DX009 (ip), vehicle: other 101 % of control | endpoint: mean survival time, dose: 25.0 mg/kg/injection, schedule: Q01DX009 (ip), vehicle: other 106 % of control | endpoint: mean survival time, dose: 50.0 mg/kg/injection, schedule: Q01DX009 (ip), vehicle: other 110 % of control | endpoint: mean survival time, dose: 100.0 mg/kg/injection, schedule: Q01DX009 (ip), vehicle: other 104 % of control | endpoint: mean survival time, dose: 200.0 mg/kg/injection, schedule: Q01DX009 (ip), vehicle: other 104 % of control

Cc1cc(C)cc(C(C)(C)C)c1
inactive: [2] 96 % of control | [4] 102 % of control

COc1ccc(OC)c(/C=C(/C#N)C(N)=O)c1
inactive: endpoint: mean survival time, dose: 50.0 mg/kg/injection, schedule: Q04DX002 (ip), vehicle: saline with Tween-80 104 % of control | [1] 93 % of control | endpoint: mean survival time, dose: 200.0 mg/kg/injection, schedule: Q01DX001 (ip), vehicle: saline with Tween-80 91 % of control | endpoint: mean survival time, dose: 200.0 mg/kg/injection, schedule: Q04DX002 (ip), vehicle: saline with Tween-80 93 % of control | endpoint: mean survival time, dose: 400.0 mg/kg/injection, schedule: Q01DX001 (ip), vehicle: saline with Tween-80 90 % of control

O=C(O)C[Se](=O)O
inactive: endpoint: mean survival time, dose: 12.5 mg/kg/injection, schedule: Q01DX001 (ip), vehicle: saline with Tween-80 91 % of control | endpoint: mean survival time, dose: 25.0 mg/kg/injection, schedule: Q01DX001 (ip), vehicle: saline with Tween-80 91 % of control

CC(=O)Nc1ccc(N=CN(C)C)cc1
inactive: [3] 95 % of control | [5] 95 % of control | [6] 112 % of control
